# Laboratory results as given in publication PMC8607422, “Development of a novel TLR8 agonist for cancer immunotherapy” (Molecular Biomedicine, 2020).
# Columns and labels:
# hERG potassium channel = test system: T1, hERG potassium channel; test: Eurofins Cerep44 off-target panel; settings: human; 10 μM compound; >50% considered significant; read-out: effect on potassium channel hERG in Cerep screen (% inhibition of binding)
# T1 construct: purchased Eurofins Cerep44 panel
# Method: Compound binding was calculated as a % inhibition of the binding of a radioactively labeled ligand specific for each target. Compound enzyme inhibition effect was calculated as a % inhibition of control enzyme activity.
# CYP 2C19 = target: T2, CYP 2C19 (Homo sapiens, UniProt P33261); test: CYP inhibition assay in human liver microsomes; format: in vitro ADME
# T2 construct: using human liver microsomes (BD Gentest); tissue BD Gentest; host or cells: human liver microsomes
# Method: (§1) CYP inhibition assay was conducted to evaluate the inhibitive potential of the compounds on CYP 1A2, 2C9, 2C19, 2D6 and 3A4 using human liver microsomes (BD Gentest). Curve-fitting was performed to calculate IC50 using a Sigmoidal (non-linear) dose-response model using GraphPad Prism (GraphPad Software Inc.).
# CYP 2C9 = target: T3, CYP 2C9 (Homo sapiens, UniProt P11712); test: CYP inhibition assay in human liver microsomes; format: in vitro ADME
# T3 construct: using human liver microsomes (BD Gentest); tissue BD Gentest; host or cells: human liver microsomes
# Method: as §1
# [1] = test system: HL-60 human acute promyelocytic leukemia (AML) cells; test: Human HL-60 AML mouse xenograft model; format: in vivo; settings: HL-60 AML xenograft, NOD/SCID mice, 1.3 mg/kg sc once a week
# Method: All the animal experiments were conducted following Association for Assessment and Accreditation of Laboratory Animal Care (AAALAC)‘s guideline. The animal protocols were approved by the Institutional Animal Care and Use Committee (IACUC). Cell lines were purchased from credible vendors including ATCC. After tumor cell inoculation, the animals were checked daily for morbidity and mortality. At the time of routine monitoring, the animals were checked for any effects of tumor growth and treatment on the animals’ well-being such as mobility, food and water consumption, body weight gain/loss, matting and any other abnormalities. Clinical observations were recorded. Tumor volumes were measured twice a week in two dimensions using a caliper and the volume was expressed in mm^3 using the formula: V = 0.5 a × b^2 where a and b are the long and short diameters of the tumor, respectively. The procedures of dosing as well as tumor and body weight measurement were conducted in a laminar flow cabinet.
# For HL-60 experiment, HL-60 human acute promyelocytic leukemia (AML) cells were cultured in vitro in suspension in RPMI1640 medium supplemented with 10% fetal bovine serum and 1% penicillin/streptomycin at 37°C in an atmosphere of 5% CO2 in air. The tumor cells were routinely passaged twice per week. The cells growing in the exponential growth phase were harvested and counted for tumor inoculation. […]
# T2 sequence (P33261 whole entry): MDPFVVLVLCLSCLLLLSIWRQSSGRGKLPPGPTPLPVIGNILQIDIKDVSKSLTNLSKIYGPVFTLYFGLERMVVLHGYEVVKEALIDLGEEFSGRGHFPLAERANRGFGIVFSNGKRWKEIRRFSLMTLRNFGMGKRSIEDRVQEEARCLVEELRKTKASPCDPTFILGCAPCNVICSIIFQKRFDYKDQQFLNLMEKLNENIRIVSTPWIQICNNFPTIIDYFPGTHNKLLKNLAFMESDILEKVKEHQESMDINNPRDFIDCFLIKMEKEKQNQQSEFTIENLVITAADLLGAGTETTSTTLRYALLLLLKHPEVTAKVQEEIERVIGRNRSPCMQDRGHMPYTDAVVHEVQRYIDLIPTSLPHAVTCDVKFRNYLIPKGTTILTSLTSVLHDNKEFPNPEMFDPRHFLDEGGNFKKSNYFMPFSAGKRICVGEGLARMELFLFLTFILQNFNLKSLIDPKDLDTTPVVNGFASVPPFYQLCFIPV
# T3 sequence (P11712 whole entry): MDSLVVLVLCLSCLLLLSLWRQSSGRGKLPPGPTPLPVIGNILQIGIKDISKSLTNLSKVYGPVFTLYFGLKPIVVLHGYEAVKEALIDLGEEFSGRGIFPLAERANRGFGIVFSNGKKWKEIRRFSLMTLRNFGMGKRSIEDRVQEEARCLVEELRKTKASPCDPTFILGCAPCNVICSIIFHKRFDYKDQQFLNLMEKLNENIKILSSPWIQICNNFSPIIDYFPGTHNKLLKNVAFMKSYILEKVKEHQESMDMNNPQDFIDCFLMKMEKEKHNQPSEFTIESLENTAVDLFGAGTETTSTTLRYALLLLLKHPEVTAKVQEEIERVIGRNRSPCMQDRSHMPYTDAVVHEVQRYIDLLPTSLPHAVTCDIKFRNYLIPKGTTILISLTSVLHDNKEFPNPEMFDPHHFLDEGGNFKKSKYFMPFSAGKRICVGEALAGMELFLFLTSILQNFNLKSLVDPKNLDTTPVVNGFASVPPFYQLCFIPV
compound,measurement,setting,value
"CCCN(CCC)C(=O)C1=Cc2ccc(-c3ccc(C(=O)N4CCCC4)cc3)cc2N=C(N)C1 [Motolimod, motolimod]",inhibition at 10 µM,hERG potassium channel,59.2%
same,IC50,CYP 2C19,> 10 µM
same,IC50,CYP 2C9,> 10 µM
same,tumor growth inhibition (TGI) rate,[1],17%
